The NIST ThermoML archive (doi:10.1021/je049559v)
Several values for one entry are separate records, joined by “and”; a condition that tells them apart may be missing. Equal values may be shown once.

Settings: Liquid; for viscosity: Capillary tube (Ostwald / Ubbelohde) method; for mass density: Vibrating tube method

COCOC [dimethoxymethane]
Settings	mass density [kg/m3]	viscosity
218.09 K	–	1.263 mPa·s
223.09 K	–	1.099 mPa·s
228.1 K	–	0.9649 mPa·s
228.11 K	–	0.9648 mPa·s
233.1 K	–	0.8557 mPa·s and 0.8556 mPa·s
233.16 K	935.5	–
238.11 K	–	0.7648 mPa·s
243.14 K	–	0.6886 mPa·s
243.15 K	–	0.6885 mPa·s
243.16 K	923.8	–
248.14 K	–	0.6248 mPa·s
253.13 K	–	0.5705 mPa·s
253.14 K	–	0.5705 mPa·s
253.16 K	912.4	–
258.12 K	–	0.524 mPa·s
258.15 K	–	0.5238 mPa·s
263.07 K	–	0.4841 mPa·s
263.09 K	–	0.4839 mPa·s
263.15 K	899.6	–
268.09 K	–	0.4489 mPa·s
273.05 K	–	0.4183 mPa·s
273.15 K	886	–
278.05 K	–	0.3912 mPa·s
283.1 K	–	0.3669 mPa·s
283.15 K	872.3	–
288.17 K	–	0.3452 mPa·s and 0.3451 mPa·s
293.09 K	–	0.3262 mPa·s
293.15 K	858.1	–
298.12 K	–	0.3086 mPa·s
298.13 K	–	0.3086 mPa·s
303.12 K	–	0.2927 mPa·s
303.13 K	–	0.2927 mPa·s
303.15 K	842.8	–
308.16 K	–	0.2781 mPa·s
308.17 K	–	0.2781 mPa·s
313.15 K	827.9	–
313.16 K	–	0.2647 mPa·s
318.16 K	–	0.2524 mPa·s
318.17 K	–	0.2524 mPa·s
323.15 K	–	0.241 mPa·s and 0.2409 mPa·s
323.16 K	814.1	–
328.14 K	–	0.2303 mPa·s
333.14 K	–	0.2202 mPa·s
333.15 K	800	0.2202 mPa·s
338.15 K	–	0.2107 mPa·s
343.15 K	785.2	0.2017 mPa·s
348.16 K	–	0.1931 mPa·s
353.12 K	–	0.185 mPa·s
353.13 K	–	0.185 mPa·s
353.16 K	770.8	–
358.16 K	–	0.1771 mPa·s
363.11 K	755.9	–
363.15 K	–	0.1696 mPa·s
368.14 K	–	0.1624 mPa·s
368.16 K	–	0.1623 mPa·s
373.14 K	–	0.1554 mPa·s
378.15 K	–	0.1486 mPa·s
383.15 K	–	0.142 mPa·s
383.16 K	–	0.142 mPa·s
